{"source": "patent US20240252456A1", "about": "“ORAL COMPOSITION, SKIN COSMETIC AND HAIR COSMETIC” (MARUZEN PHARMACEUTICALS CO., LTD., priority 2021, published 2024)", "key": {"SPT mRNA": {"tested_on": "SPT mRNA", "assay": "Serine palmitoyltransferase (SPT) mRNA expression promotive action test", "type": "cell-based, human", "settings": "NHEK, 24 hours, corrected with GAPDH", "description": "(§1) Normal human neonatal epidermal keratinocytes (NHEK) were precultured using normal human epidermal keratinocyte growth medium (KGM), and the cells were collected by a trypsin treatment. The collected cells were diluted with KGM to a cell density of 15×10^4 cells/mL, then seeded with 2 mL portions in a 6-well plate (30×10^4 cells/well), and cultured overnight under conditions of 37° C. and 5% CO2. After culturing, the medium was replaced with normal human epidermal keratinocyte basal medium (KBM, the above KGM without addition of growth additives (hEGF, BPE, insulin, antibacterial agents, hydrocortisone)), and culturing was further performed for 24 hours.\n(§2) After culturing for 24 hours, the medium was removed, and 2 mL of the test sample (Sample 1, see Table 16 below for final concentration) dissolved in KBM was added to each well, and culturing was performed under conditions of 37° C. and 5% CO2 for 24 hours. As a control, culturing was performed in the same manner using KBM to which no sample was added. After culturing, the medium was removed, total RNA was extracted using ISOGEN II (available from NIPPON GENE CO., LTD.), each RNA amount was measured using a spectrophotometer, and the total RNA was prepared so as to be 150 ng/μL.\nFor SPT and GAPDH as an internal standard, the expression levels of mRNA were measured using the above total RNA as a template. […]"}, "AGEs": {"tested_on": "AGEs", "assay": "Advanced glycation end product (AGEs) decomposition promotive action test", "settings": "preformed AGEs, 37° C., 20 days", "description": "In a 96-well type I collagen-coated plate (available from AGC Inc.), 100 μL of 0.2M D(−)-ribose solution prepared with PBS(−) buffer solution was added and statically placed at 37° C. for 2 weeks to form AGEs. In addition, the plate in which only the PBS(−) buffer solution was added was statically placed as a negative control in the same manner. After 2 weeks, 100 μL of the test sample (Sample 1, see Table 23 below for final concentration) prepared with PBS (−) buffer solution was added to each of the plates and statically further placed at 37° C. for 20 days. As a positive control, only PBS(−) buffer solution was statically placed in the same manner as substitute for the test sample, and as a negative control, only PBS(−) buffer solution was continued to be statically placed in the same manner. After 20 days, the amount of AGEs was measured by the ELISA method using an anti-AGEs antibody (available from TPANS GENIC INC.), and the AGEs decomposition promotive action was evaluated. From the obtained results, the AGEs decomposition promotion rate (%) was calculated using the following equation.\nTerms in the equation represent the following respective ones. • A: Absorbance at wavelength 405 nm in negative control • B: Absorbance at wavelength 405 nm in positive control • C: Absorbance at wavelength 405 nm with test sample addition"}, "AQP3 mRNA": {"tested_on": "AQP3 mRNA", "assay": "Aquaporin 3 (AQP3) mRNA expression promotive action test", "type": "cell-based, human", "settings": "100 μmol/L; NHEK, 24 hours, corrected with GAPDH", "description": "as §1\nas §2, with “17” for “16”\nFor AQP3 and GAPDH as an internal standard, the expression levels of mRNA were measured using the above total RNA as a template. […]"}, "[1]": {"tested_on": "Normal human hair follicle dermal papilla cells (HFDPC)", "assay": "Follicle dermal papilla cell proliferation promotive action test (MTT)", "type": "cell-based", "settings": "100 μmol/L, 4 days", "description": "Normal human hair follicle dermal papilla cells (HFDPC, derived from the parietal region of a person) were cultured using follicle dermal papilla cell growth medium (PCGM, available from TOYOBO CO., LTD.) containing 1% FCS and growth additives, and then the cells were collected by a trypsin treatment. The collected cells were diluted to a cell density of 1.0×10^4 cells/mL using Dulbecco's modified Eagle's medium (DMEM) containing 10% FBS, then seeded with 200 μL per well in a collagen-coated 96-well plate, and cultured for 3 days.\nAfter that, the medium was removed, 200 μL of the test sample (Sample 1, see Table 25 below for final concentration) dissolved in serum-free DMEM was added to each well, and culturing was further performed for 4 days. […] After the culturing was completed, the follicle dermal papilla cell proliferation promotive action was measured by MTT assay. […] The absorbance of this extract was measured at 570 nm giving the maximum absorption point of blue formazan. At the same time, the absorbance at a wavelength of 650 nm was measured as turbidity, and the difference between the two was determined as the production amount of blue formazan. From the measurement results, the follicle dermal papilla cell proliferation promotion rate (%) was calculated based on the following equation. […]"}}}
{"compound": "O=C(O)CCc1ccc(O)c(O)c1", "note": "[Sample 1, 3,4-Dihydroxyhydrocinnamic acid]", "values": [{"measurement": "SPT mRNA expression promotion rate", "setting": "SPT mRNA; 25 μmol/L", "result": 114.6, "unit": "%"}, {"measurement": "SPT mRNA expression promotion rate", "setting": "SPT mRNA; 100 μmol/L", "result": 149.9, "unit": "%"}, {"measurement": "AGEs decomposition promotion rate", "setting": "AGEs; 125 μmol/L", "result": 37.7, "unit": "%"}, {"measurement": "AGEs decomposition promotion rate", "setting": "AGEs; 500 μmol/L", "result": 39.9, "unit": "%"}, {"measurement": "AGEs decomposition promotion rate", "setting": "AGEs; 2000 μmol/L", "result": 34.1, "unit": "%"}, {"measurement": "AQP3 mRNA expression promotion rate", "setting": "AQP3 mRNA", "result": 207.8, "unit": "%"}, {"measurement": "Follicle dermal papilla cell proliferation promotion rate", "setting": "[1]", "result": 124.8, "unit": "%"}]}
